{"source": "patent US20080269163A1", "about": "“Methods and Compositions for Protecting Cells from Ultrasound-Mediated Cytolysis” (priority 2004, published 2008)", "key": {"[1]": {"tested_on": "HL-60 cells", "experiment": "Reproduction assay of HL-60 cells following sonolysis", "type": "cell-based", "conditions": "sonolysis, 5 seconds, 10 W; varying concentrations", "procedure": "Cells were allowed to reproduce for 24 hours. Reproduction fraction ±SD (where n=6 to 8) is calculated by dividing the number of cells counted following 24 hours of reproduction by the number of cells counted at the start of incubation.\nControl data points were run in triplicate with a standard deviation of less than 10%. Sonolysis points represent an average of six separate cell suspensions, with a standard deviation of less than 10%.\nThe reproduction ratio is the number of cells present one or two days post treatment divided by the number of cells present on the treatment day.\nReproduction Assay: for FIG. 5, a reproduction assay was conducted over a period of 10 days to determine the long term viability of cells following ultrasound treatment in the presence of either HGP or OGP at concentrations where 100% protection from cytolysis occurred. The long term viability of treated cell suspensions was compared to the long term viability of untreated control cell suspensions held under exactly the same conditions (FIG. 5). Immediately following sonolysis, a 100 μl aliquot of the 1 ml treated (or control) samples was used for Coulter counter analysis in order to confirm that 100% of the cells had survived the ultrasound treatment. Viability of the cells was determined by using a very small volume (approx. 20 μl) of suspension for trypan blue staining. The remaining ≈0.9 ml cell suspensions were diluted to 3 ml with fresh medium, centrifuged, washed with fresh medium, and finally re-suspended in fresh medium (2 ml). 100 μl of this new 2 ml of cells suspended in fresh medium was then used to determine the cell concentration. This cell concentration is defined as ‘the cell concentration at Day 0 after ultrasound treatment’ (Ci). Cell suspensions were then kept at 37° C. in a 5% CO2 incubator for a total of 10 days.\nOver the 10 day period, cells had to be spun down occasionally and re-suspended in fresh medium to replenish the nutrients necessary for a healthy cell population. 100 μl aliquots of the original cell suspension were used to measure the cell concentration both before (Cfinal) and following (Cinitial) re-suspension in fresh medium. This procedure, although necessary, results in a slight underestimation in the expected number of cells on any given day, when compared to the original cell concentration, Ci. To account for this small, but significant underestimation, we calculated the actual number of cells that would have been observed had we not been periodically extracting small aliquots for the detection of cell numbers by the Coulter counter. This was done by calculating a ‘reproduction ratio’, determined by dividing Cfinal by Cinitial that was measured one or two days earlier and comparing this ratio to (Ci), to give a ‘real cell population’. It should be noted that this calculation is done simply as a matter of convenience and that the reproduction ability of the treated samples was compared to control samples that were treated in the same way over the day period, as shown in FIG. 5. Verification of this method is given by the fact that the cells of the control samples double approximately every day (FIG. 5), as expected for HL-60 cells under the conditions of incubation in the current study."}, "[2]": {"tested_on": "HL-60 cells", "experiment": "Mechanical fragility test (Burrell wrist action shaker, glass beads), HL-60 cells", "type": "cell-based", "procedure": "10 ml borosilicate glass beads in a 125 ml conical flask. 10 ml cell suspension in the presence and absence (control) of various glucopyranosides (HGP, HepGP, MGP, and OGP) in a cell culture medium containing 10% DPBS solution. Shaking was conducted over a period of 30 minutes. Each data point represents ±SD, where n=5.\nMechanical Fragility Test: the effect of glucopyranosides on the mechanical fragility of the cells was determined by inducing mechanical shear stress to a cell suspension. This involved placing 10 mL of HL-60 cells in suspension in 125 ml sized screw capped conical flasks containing 10 mL of borosilicate solid-glass beads (Sigma-Aldrich, mean particle diameter of 3 mm), similar to the methods described elsewhere (Carstensen, E. L. et al. 1993; Miller, M. W. et al. 2003). The samples were then shaken in a Burrell wrist action shaker (model number 75, Burrell Scientific, Pittsburgh, Pa.) at 50% power for a duration of 30 minutes. Using this method, up to eight sample solutions could be run at one time. […] In samples containing glucopyranosides, the surfactant was dissolved in 1 ml of DPBS and added to 9 ml of the cell suspension."}, "[3]": {"tested_on": "HL-60 cells", "experiment": "Exposure of HL-60 cells to glucopyranosides alone (no ultrasound)", "conditions": "15 minute exposure at highest concentrations used", "method": "Cell experiments were completed within 5 to 10 minutes of adding the glucopyranosides to the cell suspensions, and each data point represents an average ±SEM, where n=5 to 8. […] For this reason, we only studied the effects of MGP, HGP, HepGP and OGP on the ultrasound induced cytolysis of HL-60 cells."}, "[4]": {"tested_on": "various cells", "conditions": "approximately 7 mM to 30 mM OGP for up to 30 minutes; cited from earlier work"}, "[5]": {"tested_on": "HL-525 cells", "experiment": "Mechanical fragility of HL-525 cells", "type": "cell-based", "conditions": "OGP 3 mM", "procedure": "Conditions: 50% power, 30 min. shaking, 10 mL borosilicate glass beads, 10 mL cell suspension."}, "[6]": {"tested_on": "HL-525 cells", "experiment": "Sonolysis of HL-525 cells, % cytolysis", "type": "cell-based", "conditions": "5 sec", "procedure": "Conditions: 42 kHz, 50% power, 5 sec, 20° C., % cytolysis ±SD (n=6).\nConditions: 354 kHz, 15 W, 5 sec, 20° C., % cytolysis ±SD (n=6).\nConditions: 614 kHz, 20 W, 5 sec, 20° C., % cytolysis ±SD (n=6).\nConditions: 1057 kHz, 10 W, 5 sec, 20° C., % cytolysis ±SD (n=6)."}, "[7]": {"tested_on": "HL-60 cells", "experiment": "Ultrasound-induced cytolysis of HL-60 cells, Coulter counter analysis", "type": "cell-based", "conditions": "HL-60 cells", "procedure": "Cells: HL-60 myeloid leukemia cells (American Type Culture Collection) were grown in a suspension of RPMI 1640 medium (GIBCO, Gaithersburg, Md.) containing 10% calf serum. The population of HL-60 cells doubled every 23±1 hr (hour ±SEM) when incubated at 37° C. in a CO2 (5%) containing atmosphere. Cells were harvested, re-suspended in fresh RPMI medium and kept at 25° C. until the start of the experiment (typically less than 1 hr). […] The fraction of intact cells before and after ultrasound was determined using a Coulter multisizer (model IIe) connected to a sampling stand (model IIa). The number of intact cells was determined by counting the total number of particles under the bell shaped curve (e.g., FIG. 1a) before and following sonolysis. The cytolysis percentage was determined by subtracting the number of intact cells following sonolysis from the number of intact cells before sonolysis. This value was divided by the number of intact cells before sonolysis and multiplied by 100 to obtain the cytolysis percentage value.\nThe temperature of the coupling water was 25° C.\nWe have confirmed the validity of this technique for studying the effects of sonolysis in our ultrasound system by the trypan blue exclusion assay. The mean size of HL-60 cells was determined from the Coulter counter results prior to sonolysis and was approximately 650 μm3 (FIG. 1a) which equates to a mean cell diameter of […].\n42 kHz sonolysis was conducted in a similar way but using a Branson ultrasound bath (model number 1510). […] At 42 kHz, a transducer was used to decrease the power of the bath to 50% of its original value. The temperature of the coupling water at all frequencies was 25° C.\n(§1) The percentage of cytolysis of HL-60 cells was determined by measurement of the cell size distribution using a Coulter multisizer. This method correlates well with percentage cytolysis measured using the Trypan blue exclusion assay immediately following sonolysis and is explained in detail elsewhere (Miyoshi, N. et al. 2003). […] This immediate ultrasound induced cytolysis (i.e., % cytolysis) is represented in FIGS. 2, 10-12 at a concentration of zero.\n42 kHz sonolysis was conducted in a similar way but using a Branson ultrasound bath (model number […]). […] At 42 kHz, a transducer was used to decrease the power of the bath to 50% of its original value. The temperature of the coupling water at all frequencies was 25° C.\nas §1, with “represented” for “represented in FIGS. 2, 10-12”"}}, "note": "Entries after “also recorded” stand apart in the source; their conditions may differ."}
{"smiles": "CCCCCCCCO[C@@H]1O[C@H](CO)[C@@H](O)[C@H](O)[C@H]1O", "note": "[OGP, octyl-β-D-Glucopyranoside]", "values": [{"measurement": "reproductive viability (reproduction fraction) over 24 hours after sonolysis", "setting": "[1]", "value": "continue to reproduce at the same rate as untreated control samples"}, {"measurement": "protection from mechanical induced cytolysis", "setting": "[2]; 30 min shaking, 50% power, HGP 1-10 mM, HepGP 0.1-10 mM, MGP 10-30 mM, OGP 0.3-3 mM", "value": "none of the glucopyranosides tested"}, {"measurement": "effect on mechanical destruction of cells", "setting": "[2]; OGP 3 mM", "value": "no effect"}, {"measurement": "effect on reproduction rate of the cells over 120 hours", "setting": "[3]", "value": "no detrimental effect"}, {"measurement": "cytolytic effects", "setting": "[4]", "value": "no cytolytic effects observed"}, {"measurement": "effect on mechanical destruction of cells", "setting": "[5]", "value": "significant effect on enhancing mechanical destruction"}, {"measurement": "protective effect for HL-525 cells compared to HL-60 cells", "setting": "[6]; 1 MHz (1057 kHz), 10 W", "value": "different protection effects; also recorded: smaller protective effect"}, {"measurement": "protective effect for HL-525 cells compared to HL-60 cells", "setting": "[6]; 614 kHz, 20 W", "value": "much less pronounced; also recorded: smaller protective effect"}, {"measurement": "effect on ultrasound induced cytolysis (% cytolysis)", "setting": "[7]; 1.057 MHz (1 MHz), 10 W, 5 s", "value": "fully protects"}, {"measurement": "concentration giving complete (approximately 100%) protection from ultrasound induced cytolysis", "setting": "[7]; 1.057 MHz (1 MHz), 10 W, 5 s, air exposed", "value": 2, "unit": "mM"}, {"measurement": "effect on ultrasound induced cytolysis", "setting": "[7]; 42 kHz, 50% power, 5 s", "value": "very small sonosensitization; also recorded: weak sonosensitizer"}, {"measurement": "effect on ultrasound induced cytolysis", "setting": "[7]; 354 kHz, 15 W, 5 s", "value": "weak sonosensitizer"}, {"measurement": "cell population protected from cytolysis", "setting": "[7]; 614 kHz", "value": 50, "unit": "%"}, {"measurement": "change of protection from cytolysis as frequency is decreased", "setting": "[7]; frequency decreased from 1 MHz to 42 kHz", "value": "less effective; also recorded: most affected by the frequency of sonolysis"}]}
